Reference: US20250223301A1, “KINASE INHIBITORS, PREPARATION METHODS AND USES THEREOF” (InventisBio Co., Ltd., priority 2022, published 2025)

Assays:
[1] = test system: Jurkat cells; assay: Jurkat IL-2 assay; type: cell-based; conditions: Homo sapiens, anti-CD3/CD28 stimulation overnight, IL-2 level
Experimental: Jurkat cells (ATCC) were cultured in RPMI-1640 medium supplemented with 10% FBS. In a 96-well plate, −250,000 cells in 130 uL were added to each assay well. Ten microliter compound solution (5 uM to 2.3 nM, 8 points with 3-fold dilution) were added to cells in each well and incubated for 60 minutes at 37° C. Then 10 uL anti-CD3/CD28 antibody (Catalog #10991, Stemcell) were added and incubated overnight at 37° C. After the incubation, 16 uL supernatants were transferred into a new 384-well white assay plate for cytokine analysis. IL-2 was quantified using Human IL-2 kit (Catalog #62HIL02PEG, Cisbio) as described in the manufacturer manual.
(§1) X is log of compound concentration, Y is the IL-2 concentration, increasing as X increases.

[2] = test system: PBMC; assay: Human PBMC IL-2 assay; type: cell-based; conditions: anti-CD3/CD28 stimulation overnight, IL-2 level
Experimental: PBMC (frozen) obtained from health donor were thawed in RPMI-1640 medium with 10% FBS and incubated for 4 h at 37° C. In a 96-well plate, −200,000 PBMC cells in 160 uL were added to each assay well. Ten microliter compound solution (10 uM to 0.6 nM, 8 points with 4-fold dilution) were added to cells in each well and incubated for 60 minutes at 37° C. Then 30 uL anti-CD3/CD28 antibody (Catalog #10991, Stemcell) were added to cells and incubated overnight at 37° C. After the incubation, 16 uL supernatants were transferred into a new 384-well white assay plate for cytokine analysis. IL-2 level was quantified using Human IL-2 kit (Catalog #62HIL02PEG, Cisbio) as described in the manufacturer manual.
as §1

Structure (SMILES)	EC50 [1] [nM]	EC50 [2] [nM]
CC[C@H]1CN([C@@H](CC)c2ccc(F)cc2F)[C@H](CC)CN1c1nc2nncn2c2ccc(C#N)nc12 (stereo in doubt) [Compound 194]	104	79
CC[C@H]1CN([C@H](CC)c2ccc(F)cc2F)[C@H](CC)CN1c1nc2nncn2c2ccc(C#N)nc12 (stereo in doubt) [Compound 195]	1110	2200
CC[C@@H]1CN2c3c(c(=O)n(C)c4ccc(C#N)nc34)OC[C@@H]2CN1[C@H](CC)c1ccc(F)c(Cl)c1 (stereo in doubt) [Compound 196]	1280	846
CC[C@H]1CN([C@@H](CC)c2ccc(F)c(F)c2)[C@H](CC)CN1c1nc2nncn2c2ccc(C#N)nc12 (stereo in doubt) [Compound 200]	86	42
CC[C@H]1CN([C@H](CC)c2ccc(F)c(F)c2)[C@H](CC)CN1c1nc2nncn2c2ccc(C#N)nc12 (stereo in doubt) [Compound 201]	822	520
CC[C@H]1CN([C@H](c2ccc(C(F)(F)F)cc2)C(C)C)[C@H](CC)CN1c1nc2nncn2c2ccc(C#N)nc12 (stereo in doubt) [Compound 204]	202	107
CC[C@H]1CN([C@H](CC)c2c(Cl)cccc2Cl)[C@H](CC)CN1c1nc2nncn2c2ccc(C#N)nc12 (stereo in doubt) [Compound 209]	1010	1380
CC[C@@H]1CN2c3c(c(=O)n(C)c4ccc(C#N)nc34)OC[C@@H]2CN1[C@@H](CC)c1ccc(OC(F)(F)F)cc1 (stereo in doubt) [Compound 212]	11	39
CC[C@@H]1CN2c3c(c(=O)n(CC)c4ccc(C#N)nc34)OC[C@@H]2CN1[C@@H](CC)c1ccc(C(F)(F)F)cc1 (stereo in doubt) [Compound 228]	87	227
CC[C@@H]1CN2c3c(c(=O)n(C)c4ccc(C#N)nc34)OC[C@@H]2CN1[C@H](CC)c1c(Cl)cccc1Cl (stereo in doubt) [Compound 239]	687	3420
CC[C@@H]1CN2c3c(c(=O)n(C)c4ccc(C#N)nc34)OC[C@@H]2CN1[C@@H](CC)c1c(Cl)cccc1Cl (stereo in doubt) [Compound 240]	242	109
CC[C@@H]1CN2c3c(c(=O)n(C)c4ccc(C#N)nc34)OC[C@@H]2CN1[C@H](CC)c1ccc(Cl)cc1 (stereo in doubt) [Compound 243]	473	212
CC[C@@H]1CN2c3c(c(=O)n(C)c4ccc(C#N)nc34)OC[C@@H]2CN1[C@@H](CC)c1ccc(Cl)cc1 (stereo in doubt) [Compound 244]	63	11
C[C@@H]1CN2c3c(c(=O)n(C)c4ccc(C#N)nc34)OC[C@@H]2CN1[C@@H](C)c1ccc(Cl)c(Cl)c1 (stereo in doubt) [Compound 257]	132	119
C[C@@H]1CN2c3c(c(=O)n(C)c4ccc(C#N)nc34)OC[C@@H]2CN1[C@H](C)c1ccc(Cl)c(Cl)c1 (stereo in doubt) [Compound 258]	758	1100
C[C@@H]1CN2c3c(c(=O)n(C)c4ccc(C#N)nc34)OC[C@@H]2CN1[C@H](C)c1ccc(Cl)cc1 (stereo in doubt) [Compound 270]	506	616
C[C@@H]1CN2c3c(c(=O)n(C)c4ccc(C#N)nc34)OC[C@@H]2CN1[C@@H](C)c1ccc(Cl)cc1 (stereo in doubt) [Compound 271]	79	57
CC[C@@H]1CN2c3c(c(=O)n(C)c4ccc(C#N)nc34)OC[C@@H]2CN1[C@@H](CC)c1ccc(C(F)F)cc1 (stereo in doubt) [Compound 291]	10	11
CC[C@@H]1CN2c3c(c(=O)n(C)c4ccc(C#N)nc34)OC[C@@H]2CN1[C@H](CC)c1ccc(Cl)c(F)c1 (stereo in doubt) [Compound 296]	91	68
CCC[C@@H](c1ccc(Cl)cc1)N1C[C@H]2COc3c(c4nc(C#N)ccc4n(C)c3=O)N2C[C@H]1CC (stereo in doubt) [Compound 311]	54	1
CCC[C@H](c1ccc(Cl)cc1)N1C[C@H]2COc3c(c4nc(C#N)ccc4n(C)c3=O)N2C[C@H]1CC (stereo in doubt) [Compound 312]	218	49
C[C@@H]1CN2c3c(c(=O)n(C)c4ccc(C#N)nc34)OC[C@@H]2CN1[C@H](C)c1ccc(C(F)F)cc1 (stereo in doubt) [Compound 314]	77	22
CC[C@H]1CN([C@H](C)c2ccc(C(F)(F)F)cc2)[C@H](C)CN1c1nc2nncn2c2ccc(C#N)nc12 (stereo in doubt) [Compound 315]	90	63
CC[C@H]1CN([C@@H](C)c2ccc(C(F)(F)F)cc2)[C@H](C)CN1c1nc2nncn2c2ccc(C#N)nc12 (stereo in doubt) [Compound 316]	707	742

Continued, in another order:

EC50 [1] [nM]	Structure (SMILES)	EC50 [2] [nM]
29	CC[C@@H](c1ccc(C(F)(F)F)cc1)N1C[C@H]2COc3c(c4nc(C#N)ccc4n(C)c3=O)N2C[C@H]1C (stereo in doubt) [Compound 179]	58
13	CC[C@@H]1CN2c3c(c(=O)n(C)c4ccc(C#N)nc34)OC[C@@H]2CN1[C@@H](CC)c1ccc(C(F)(F)F)cn1 (stereo in doubt) [Compound 186]	23
150	CC[C@@H]1CN2c3c(c(=O)n(C)c4ccc(C#N)nc34)OC[C@@H]2CN1[C@@H](CC)c1ccc(C(F)(F)F)cc1Cl (stereo in doubt) [Compound 207]	284
144	C[C@@H]1CN2c3c(c(=O)n(C)c4ccc(C#N)nc34)OC[C@@H]2CN1[C@H](C)c1ccc(C(F)(F)F)cc1 (stereo in doubt) [Compound 222]	154
47	CC[C@@H]1CN2c3c(c(=O)n(C)c4ccc(C#N)nc34)OC[C@@H]2CN1[C@@H](CC)c1ccc(OC)cc1F (stereo in doubt) [Compound 232]	19
287	CC[C@@H]1CN2c3c(c(=O)n(C)c4ccc(C#N)nc34)OC[C@@H]2CN1[C@@H](CC)c1ccc(C(F)(F)F)cc1C (stereo in doubt) [Compound 233]	361
98	CC[C@@H]1CN2c3c(c(=O)n(C)c4ccc(C#N)nc34)OC[C@@H]2CN1[C@H](CO)c1ccc(C(F)(F)F)cc1 (stereo in doubt) [Compound 236]	583
189	CC[C@@H](c1ccc(F)c(Cl)c1)N1C[C@H]2COc3c(c4nc(C#N)ccc4n(C)c3=O)N2C[C@H]1C (stereo in doubt) [Compound 238]	78
189	CC[C@@H]1CN2c3c(c(=O)n(C)c4ccc(C#N)nc34)OC[C@@H]2CN1[C@H](CC)c1ccc(C(F)(F)F)c(Cl)c1 (stereo in doubt) [Compound 245]	314
624	C[C@@H]1CN2c3c(c(=O)n(C)c4ccc(C#N)nc34)OC[C@@H]2CN1[C@H](C)c1ccc(F)c(Cl)c1 (stereo in doubt) [Compound 259]	1880
69	C[C@@H]1CN2c3c(c(=O)n(C)c4ccc(C#N)nc34)OC[C@@H]2CN1[C@@H](C)c1ccc(F)c(Cl)c1 (stereo in doubt) [Compound 260]	89
51	C[C@@H]1CN2c3c(c(=O)n(C)c4ccc(C#N)nc34)OC[C@@H]2CN1[C@@H](C)c1ccc(Cl)cc1F (stereo in doubt) [Compound 275]	23
118	CC[C@@H](c1ccc(Cl)c(F)c1)N1C[C@H]2COc3c(c4nc(C#N)ccc4n(C)c3=O)N2C[C@H]1C (stereo in doubt) [Compound 281]	49
8	CC[C@@H]1CN2c3c(c(=O)n(C)c4ccc(C#N)nc34)OC[C@@H]2CN1[C@@H](CC)c1ccc(Cl)cc1F (stereo in doubt) [Compound 295]	10
34	CC[C@@H]1CN2c3c(c(=O)n(C)c4ccc(C#N)nc34)OC[C@@H]2CN1[C@@H](CC)c1ccc(Cl)c(F)c1 (stereo in doubt) [Compound 297]	12
153	C[C@@H]1CN2c3c(c(=O)n(C)c4ccc(C#N)nc34)OC[C@@H]2CN1[C@H](C)c1ccc(C(C)(F)F)cc1 (stereo in doubt) [Compound 303]	105
34	C[C@@H]1CN2c3c(c(=O)n(C)c4ccc(C#N)nc34)OC[C@@H]2CN1[C@@H](C)c1ccc(C(C)(F)F)cc1 (stereo in doubt) [Compound 304]	24
36	CC[C@@H](c1ccc(C(F)(F)F)cc1F)N1C[C@H]2COc3c(c4nc(C#N)ccc4n(C)c3=O)N2C[C@H]1C (stereo in doubt) [Compound 306]	30
9	CC[C@@H](c1ccc(Cl)cc1F)N1C[C@H]2COc3c(c4nc(C#N)ccc4n(C)c3=O)N2C[C@H]1C (stereo in doubt) [Compound 308]	18
